Measured values reported in PubChem BioAssay AID1996.
Converted amounts (≈) assume the structure as drawn.

settings: buffer; pH 7.4; 200.0 µM

| SMILES | solubility kinetic |
| --- | --- |
| OCC1(CC2CCCCO2)CCN(Cc2cccc(O)c2)CC1 (stereo not drawn) | 47.3 µg/mL (≈ 148 µM) |
| O=C(COC(=O)c1ccc(Br)o1)NC12CC3CC(CC(C3)C1)C2 | 34.3 µg/mL (≈ 89.7 µM) |
| COCCN(C(=S)Nc1cccc(C)c1)C(C)c1cccnc1 (stereo not drawn) | 48.2 µg/mL (≈ 146 µM) |
| O=C(CCc1ccc(S(=O)(=O)N2CCOCC2)cc1)Nc1ccc(F)cc1[N+](=O)[O-] | 14 µg/mL (≈ 32 µM) |
| CC(C)NCC(=O)Nc1c2c(nc3ccccc13)CCC2.O=C(O)C(=O)O | > 56 µg/mL |
| O=C(Nc1ccccc1)c1cn(CCBr)cn1 | > 44.1 µg/mL |
| FC(F)(F)c1ccc(Cl)c(-n2c(-c3ccco3)n[nH]c2=S)c1 | > 51.9 µg/mL |
| CCCSc1nc2c(c(=O)[nH]c(=O)n2C)n1Cc1ccccc1 | 1.6 µg/mL (≈ 4.84 µM) |
| Cc1ccc(N=C2C(=O)Nc3ccccc32)c(C)c1 | 28.8 µg/mL (≈ 115 µM) |
| COC(=O)C1=C(C(=O)OC)SC(=C2C(=S)C(C)(C)N(C(=O)C3CC3)c3ccccc32)S1 | 11.2 µg/mL (≈ 23.5 µM) |
| c1ccc(Cn2c(NCc3ccccn3)nc3ccccc32)cc1 | > 47.2 µg/mL |
| COc1cc(OC)c2c(c1)S(=O)(=O)C(c1ccccc1)=C2N | 5.1 µg/mL (≈ 16.1 µM) |
| Cc1ccccc1-c1noc(-c2ccccc2C(=O)NCC2CCCO2)n1 (stereo not drawn) | 49.6 µg/mL (≈ 136 µM) |
| O=C1c2ccccc2NC(c2ccccc2O)N1O (stereo not drawn) | > 38.4 µg/mL |
| COc1ccccc1N1CCN(Cc2nc3ccccc3[nH]2)CC1 | 47.9 µg/mL (≈ 149 µM) |
| N#Cc1ccsc1NC(=O)COC(=O)c1ccc(Br)o1 | 10.5 µg/mL (≈ 29.6 µM) |
| Cc1cc(C)nc(N/N=C/c2sccc2C)n1 | > 36.9 µg/mL |
| CC(C(=O)Nc1ccc(Cl)cc1)N(C)Cc1cccs1 (stereo not drawn) | 13.4 µg/mL (≈ 43.4 µM) |
| Cc1ccsc1C(=O)NCC(C)(C)N1CCOCC1 | > 42.4 µg/mL |
| O=C(NN=Cc1cc(Br)c(O)c(Br)c1)c1ccccc1NS(=O)(=O)c1cccs1 | > 83.9 µg/mL |

| SMILES | solubility kinetic |
| --- | --- |
| OC(CN1CCN(c2ccc(C(F)(F)F)cn2)CC1)c1ccccc1 (stereo not drawn) | 1.8 µg/mL (≈ 5.12 µM) |
| CN(Cc1nc2ccccc2c(=O)[nH]1)C(=O)c1cccc(S(=O)(=O)N2CCc3ccccc32)c1 | 36.5 µg/mL (≈ 76.9 µM) |
| COc1ccc(S(=O)(=O)NC2CCCCCC2)cc1C(N)=O | 11.9 µg/mL (≈ 36.5 µM) |
| COc1ccc(/C=C/C(=O)N2CCNC(=O)C2)c(OC)c1 | 41.3 µg/mL (≈ 142 µM) |
| O=[N+]([O-])c1ccc(-c2ccc(S(=O)(=O)N3CCOCC3)cc2)cc1 | < 0.4 µg/mL |
| COCCNC(=O)Cn1cc(/C=C(\C#N)C(=O)NC2CC2)c2ccccc21 | > 55 µg/mL |
| O=C(COC(=O)COc1ccccc1F)NC1CC1 | 37 µg/mL (≈ 138 µM) |
| Cc1ccc(N2CCN(c3ccc([N+](=O)[O-])cn3)CC2)c(C)c1 | 0.3 µg/mL (≈ 0.96 µM) |
| COC(=O)/C(C#N)=C/c1c(N2CCN(C)CC2)nc2ccccn2c1=O | > 53 µg/mL |
| O=C(CCNC(=O)c1ccco1)Nc1nc(-c2ccccc2)cs1 | 8.5 µg/mL (≈ 24.9 µM) |
| CC(C)(CN1CCc2ccccc2C1)NS(=O)(=O)c1ccccc1 | 34.8 µg/mL (≈ 101 µM) |
| O=C(NC1CCCCC1)Oc1cc2oc(=O)sc2cc1Br | 10.2 µg/mL (≈ 27.4 µM) |
| COc1ccc(CN(C)CC(=O)NC(=O)NC2CCCCC2)cc1 | > 50 µg/mL |
| CCCC(=O)N1CCN(c2nc3ccc(CC)cc3s2)CC1 | 13.5 µg/mL (≈ 42.5 µM) |
| CC(C)Nc1nc(Cl)nc(NC2CCCCC2)n1 | 2.7 µg/mL (≈ 10 µM) |
| CC(=O)N1CCN(CC(C)(C)NS(=O)(=O)c2ccc(C)cc2)CC1 | 46.6 µg/mL (≈ 132 µM) |
| Cc1c(C)n(CCCN(C)C)c2ncnc(NC3CCCCC3)c12 | 46.9 µg/mL (≈ 142 µM) |
| CCCCCCCOc1ccc(C2CC(=O)N(C)C2=O)cc1 (stereo not drawn) | 3.1 µg/mL (≈ 10.2 µM) |
| O=C(O)CC1(CC(=O)Nc2ccc3c(c2)C(=O)OC3)CCCCC1 | > 49.7 µg/mL |
| CCOc1ccc2[nH]c3c(NCCC(C)C)ncnc3c2c1 | 0.6 µg/mL (≈ 2.01 µM) |

| SMILES | solubility kinetic |
| --- | --- |
| O=[N+]([O-])c1cccc(S(=O)(=O)N2CN(c3ccc(Br)cc3)c3nc4ccccc4nc32)c1 | 1.6 µg/mL (≈ 3.12 µM) |
| CCCN(CC(=O)Nc1ccccc1OC)C(=O)c1nc2nc(C)ccn2n1 | > 57.4 µg/mL |
| CC(NC(=S)Nc1cccc(C(F)(F)F)c1)C(C)(C)C (stereo not drawn) | 4.6 µg/mL (≈ 15.1 µM) |
| OC1CCN(Cc2ccc3ccccc3c2)CC1 | 26.6 µg/mL (≈ 110 µM) |
| CC(=O)C1=C(O)C(=O)N(c2ccc(O)cc2)C1c1cccc(F)c1 (stereo not drawn) | > 49.1 µg/mL |
| CCOc1ccc(NC(=O)CN(C)C(=O)C2CCCC2)cc1OCC | 37.6 µg/mL (≈ 108 µM) |
| O=C(CN1CCN(Cc2ccccc2)CC1)N/N=C/c1cccnc1 | > 50.6 µg/mL |
| CN(CC(=O)Nc1ccc(F)c(F)c1F)C(=O)C1=COCCO1 | > 49.5 µg/mL |
| CCN1CCN(C(=O)C(Cc2ccccc2)NC(=O)c2ccc(Cl)c(S(=O)(=O)N(C)C)c2)CC1 (stereo not drawn) | > 76.1 µg/mL |
| Cc1cc(/C=C2\SC(=O)NC2=O)c(C)n1-c1ccc(N(C)C)cc1 | < 0.2 µg/mL |
| Cn1cccc1/C=C1/C(=O)NC(=O)N(Cc2ccc(F)cc2)C1=O | 5.4 µg/mL (≈ 16.5 µM) |
| NC(=O)CSc1nc2cccnc2n1-c1ccc(F)cc1 | 45.2 µg/mL (≈ 150 µM) |
| O=c1c2oc3nc4c(cc3c2ncn1CCCc1ccccc1)CCCC4 | 1.3 µg/mL (≈ 3.62 µM) |
| CCNc1ccc(S(=O)(=O)NCCN(C)C)cc1[N+](=O)[O-] | 42.4 µg/mL (≈ 134 µM) |
| CC1C(=O)N2CCCc3cc(S(=O)(=O)N(C)CCC#N)cc1c32 (stereo not drawn) | > 50 µg/mL |
| COc1ccc(N2C(=O)c3ccccc3C2=O)cc1 | 10.7 µg/mL (≈ 42.2 µM) |
| O=C(COC(=O)/C=C/c1ccc(Cl)cc1Cl)NCC1CCCO1 (stereo not drawn) | 10.4 µg/mL (≈ 29 µM) |
| c1ccc(N2CCN(CC3CCCCC3)CC2)cc1 | 17 µg/mL (≈ 65.8 µM) |
